The results in this text go back to US12492173B2, “Herbicidal substituted N-tetrazolyl aryl carboxamides” (Bayer Aktiengesellschaft, priority 2019, dated 2025).

Structures are written as SMILES.

One assay deals with Stellaria media. Put plainly: Pre-emergence herbicidal action, STEME. The settings on record: comparative experiment, 20 g of a.i./ha. Type of assay: in vivo. Also noted: key to Herbicidal action against STEME: % activity: 100 = plants have died, 0 = like control plants. Summed up:
(§1)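 Sown pots (sandy loam) sprayed pre-emergence → greenhouse → visual rating at 3 weeks; % activity vs untreated control, 100% = dead.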
In the case of `Cn1nnnc1NC(=O)c1ccc(C(F)(F)F)c(C[S+](C)[O-])c1Br` (stereo not drawn) [Example 1-381], the “Herbicidal action against STEME” value was found to be 90.

The same assay, now with this note: dosage 320 g/ha, scored visually after 3 weeks vs untreated controls (100% = plants have died).
Turning to `CCCn1nnnc1NC(=O)c1ccc(C(F)F)c(C[S+]([O-])CC)c1Cl` (stereo not drawn) [Example 3-324], the “herbicidal activity STEME” value amounted to 100%.
In the case of `CCCn1nnnc1NC(=O)c1ccc(C(F)(F)F)c(CSCC)c1Cl` [Example 3-299], the “herbicidal activity STEME” value was determined as 90%.
Still for that read-out and setting: for `Cn1nnnc1NC(=O)c1ccc(C(F)(F)F)c(C[S+](C)[O-])c1Br` (stereo not drawn) [Example 1-381] the value was 90%; for `Cc1ccc(C(=O)Nc2nnnn2C)c(Cl)c1CS(C)(=O)=O` [Example 1-289], 90%.
As to `C=CCSCc1c(C(F)(F)F)ccc(C(=O)Nc2nnnn2C)c1Cl` [Example 1-308], the “herbicidal activity STEME” value stood at 100%.
For the molecule `CCSCc1c(C(F)(F)F)ccc(C(=O)Nc2nnnn2CC)c1Br` [Example 2-383], the “herbicidal activity STEME” value is recorded as 100%.
Same read-out and setting: for `CCCn1nnnc1NC(=O)c1ccc(C(F)(F)F)c(CSC)c1Cl` [Example 3-296] the value was 100%; for `CCCn1nnnc1NC(=O)c1ccc(C(F)(F)F)c(C[S+](C)[O-])c1Br` (stereo not drawn) [Example 3-381], 90%; for `CCCn1nnnc1NC(=O)c1ccc(C(F)F)c(CSC)c1Cl` [Example 3-320], 100%.
Same read-out and setting: for `CCCn1nnnc1NC(=O)c1ccc(C(F)(F)F)c(CS(=O)(=O)CC)c1Br` [Example 3-385] the value was 90%.

The next assay concerns Polygonum convolvulus. As to the kind of experiment: Pre-emergence herbicidal action, POLCO. The format is in vivo. The settings on record: dosage 320 g/ha, scored visually after 3 weeks vs untreated controls (100% = plants have died). Summed up:
as §1
For `CCCn1nnnc1NC(=O)c1ccc(C(F)F)c(C[S+]([O-])CC)c1Cl` (stereo not drawn) [Example 3-324], the “herbicidal activity POLCO” value is 100%.
Still for that read-out and setting: for `CCCn1nnnc1NC(=O)c1ccc(C(F)(F)F)c(CSCC)c1Cl` [Example 3-299] the value was 90%; for `Cn1nnnc1NC(=O)c1ccc(C(F)(F)F)c(C[S+](C)[O-])c1Br` (stereo not drawn) [Example 1-381], 90%; for `Cc1ccc(C(=O)Nc2nnnn2C)c(Cl)c1CS(C)(=O)=O` [Example 1-289], 80%.
On the same count and under the same terms, for `C=CCSCc1c(C(F)(F)F)ccc(C(=O)Nc2nnnn2C)c1Cl` [Example 1-308] the value was 100%; for `CCSCc1c(C(F)(F)F)ccc(C(=O)Nc2nnnn2CC)c1Br` [Example 2-383], 90%; for `CCCn1nnnc1NC(=O)c1ccc(C(F)(F)F)c(CSC)c1Cl` [Example 3-296], 90%.
Same read-out and setting: as for `CCCn1nnnc1NC(=O)c1ccc(C(F)(F)F)c(C[S+](C)[O-])c1Br` (stereo not drawn) [Example 3-381], the figure is 80%.
`CCCn1nnnc1NC(=O)c1ccc(C(F)F)c(CSC)c1Cl` [Example 3-320]: the “herbicidal activity POLCO” value is 90%.
For the molecule `CCCn1nnnc1NC(=O)c1ccc(C(F)(F)F)c(CS(=O)(=O)CC)c1Br` [Example 3-385], the “herbicidal activity POLCO” value is listed as 80%.

In a further assay the test system is Abutilon theophrasti. As to the kind of experiment: Pre-emergence herbicidal action, ABUTH. Type of assay: in vivo. The settings on record: dosage 320 g/ha, scored visually after 3 weeks vs untreated controls (100% = plants have died). The gist of the method:
as §1
As for `CCCn1nnnc1NC(=O)c1ccc(C(F)F)c(C[S+]([O-])CC)c1Cl` (stereo not drawn) [Example 3-324], the “herbicidal activity ABUTH” value turned out to be 100%.
With `CCCn1nnnc1NC(=O)c1ccc(C(F)(F)F)c(CSCC)c1Cl` [Example 3-299], the “herbicidal activity ABUTH” value is listed as 100%.
As to `Cn1nnnc1NC(=O)c1ccc(C(F)(F)F)c(C[S+](C)[O-])c1Br` (stereo not drawn) [Example 1-381], the “herbicidal activity ABUTH” value came out at 100%.
As for `Cc1ccc(C(=O)Nc2nnnn2C)c(Cl)c1CS(C)(=O)=O` [Example 1-289], the “herbicidal activity ABUTH” value was determined as 90%.
Consider `C=CCSCc1c(C(F)(F)F)ccc(C(=O)Nc2nnnn2C)c1Cl` [Example 1-308], for which the “herbicidal activity ABUTH” value was found to be 100%.
Turning to `CCSCc1c(C(F)(F)F)ccc(C(=O)Nc2nnnn2CC)c1Br` [Example 2-383], the “herbicidal activity ABUTH” value amounted to 100%.
With `CCCn1nnnc1NC(=O)c1ccc(C(F)(F)F)c(CSC)c1Cl` [Example 3-296], the “herbicidal activity ABUTH” value amounted to 100%.
Still for that read-out and setting: for `CCCn1nnnc1NC(=O)c1ccc(C(F)(F)F)c(C[S+](C)[O-])c1Br` (stereo not drawn) [Example 3-381] the value was 100%.
Regarding `CCCn1nnnc1NC(=O)c1ccc(C(F)F)c(CSC)c1Cl` [Example 3-320], the “herbicidal activity ABUTH” value is 100%.
On the same count and under the same terms, for `CCCn1nnnc1NC(=O)c1ccc(C(F)(F)F)c(CS(=O)(=O)CC)c1Br` [Example 3-385] the value was 100%.

The subject of a further assay is Stellaria media. Put plainly: Post-emergence herbicidal action, STEME. The format is in vivo. On the set-up: key: % herbicidal action vs untreated; 100 = plants died, 0 = like control. The settings on record: Dosage 80 g/ha. Summed up: (§2)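 WP or EC formulations, diluted in water at 600 to 800 l/ha with 0.2% wetting agent, are sprayed onto green parts of one-leaf-stage plants grown in sandy loam. Visual assessment of percent damage relative to untreated controls follows after approximately 3 weeks in the greenhouse.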
As for `CCCn1nnnc1NC(=O)c1ccc(C(F)F)c(C[S+]([O-])CC)c1Cl` (stereo not drawn) [Example 3-324], the “herbicidal action STEME” value is listed as 100.
As for `CCCn1nnnc1NC(=O)c1ccc(C(F)(F)F)c(CSCC)c1Cl` [Example 3-299], the “herbicidal action STEME” value was 100.
Same read-out and setting: as for `Cc1ccc(C(=O)Nc2nnnn2C)c(Cl)c1CS(C)(=O)=O` [Example 1-289], the figure is 100.
On the same count and under the same terms, as for `CCCn1nnnc1NC(=O)c1ccc(C(F)(F)F)c(CSC)c1Cl` [Example 3-296], the figure is 100; as for `CCCn1nnnc1NC(=O)c1ccc(C(F)F)c(CSC)c1Cl` [Example 3-320], 100; as for `CCCn1nnnc1NC(=O)c1ccc(C(F)(F)F)c(CS(=O)(=O)CC)c1Br` [Example 3-385], 100.

Still in this assay, the particulars now being: post-emergence, dosage 80 g/ha.
In the case of `Cn1nnnc1NC(=O)c1ccc(C(F)(F)F)c(C[S+](C)[O-])c1Br` (stereo not drawn) [Example 1-381], the “herbicidal action STEME” value was 100%.
`C=CCSCc1c(C(F)(F)F)ccc(C(=O)Nc2nnnn2C)c1Cl` [Example 1-308]: the “herbicidal action STEME” value is 100%.
Regarding `CCSCc1c(C(F)(F)F)ccc(C(=O)Nc2nnnn2CC)c1Br` [Example 2-383], the “herbicidal action STEME” value came out at 90%.
With `CCCn1nnnc1NC(=O)c1ccc(C(F)(F)F)c(C[S+](C)[O-])c1Br` (stereo not drawn) [Example 3-381], the “herbicidal action STEME” value was determined as 100%.

Another assay concerns Setaria viridis. As to the kind of experiment: Pre-emergence herbicidal action, SETVI. The format is in vivo. Also noted: key to Herbicidal action against SETVI: % activity: 100 = plants have died, 0 = like control plants. The settings on record: comparative experiment, 20 g of a.i./ha. The gist of the method:
as §1
On to `Cn1nnnc1NC(=O)c1ccc(C(F)(F)F)c(C[S+](C)[O-])c1Br` (stereo not drawn) [Example 1-381], for which the “Herbicidal action against SETVI” value is 80.

The same assay, now with this note: dosage 320 g/ha, scored visually after 3 weeks vs untreated controls (100% = plants have died).
`CCCn1nnnc1NC(=O)c1ccc(C(F)F)c(C[S+]([O-])CC)c1Cl` (stereo not drawn) [Example 3-324]: the “herbicidal activity SETVI” value was determined as 100%.
For the molecule `CCCn1nnnc1NC(=O)c1ccc(C(F)(F)F)c(CSCC)c1Cl` [Example 3-299], the “herbicidal activity SETVI” value is 100%.
As to `Cn1nnnc1NC(=O)c1ccc(C(F)(F)F)c(C[S+](C)[O-])c1Br` (stereo not drawn) [Example 1-381], the “herbicidal activity SETVI” value was 100%.
Consider `Cc1ccc(C(=O)Nc2nnnn2C)c(Cl)c1CS(C)(=O)=O` [Example 1-289], for which the “herbicidal activity SETVI” value is listed as 90%.
In the case of `C=CCSCc1c(C(F)(F)F)ccc(C(=O)Nc2nnnn2C)c1Cl` [Example 1-308], the “herbicidal activity SETVI” value was determined as 100%.
The same measure, in the same setting: as for `CCSCc1c(C(F)(F)F)ccc(C(=O)Nc2nnnn2CC)c1Br` [Example 2-383], the figure is 100%; as for `CCCn1nnnc1NC(=O)c1ccc(C(F)(F)F)c(CSC)c1Cl` [Example 3-296], 100%; as for `CCCn1nnnc1NC(=O)c1ccc(C(F)(F)F)c(C[S+](C)[O-])c1Br` (stereo not drawn) [Example 3-381], 90%.
As to `CCCn1nnnc1NC(=O)c1ccc(C(F)F)c(CSC)c1Cl` [Example 3-320], the “herbicidal activity SETVI” value turned out to be 100%.
For `CCCn1nnnc1NC(=O)c1ccc(C(F)(F)F)c(CS(=O)(=O)CC)c1Br` [Example 3-385], the “herbicidal activity SETVI” value is recorded as 100%.

The test system of the next assay is Pharbitis purpurea. As to the kind of experiment: Post-emergence herbicidal action, PHBPU. Type of assay: in vivo. The settings on record: Dosage 80 g/ha. Summed up: as §2
Regarding `CCCn1nnnc1NC(=O)c1ccc(C(F)F)c(C[S+]([O-])CC)c1Cl` (stereo not drawn) [Example 3-324], the “herbicidal action PHBPU” value is reported as 100.
Still for that read-out and setting: for `CCCn1nnnc1NC(=O)c1ccc(C(F)(F)F)c(CSCC)c1Cl` [Example 3-299] the value was 90; for `Cc1ccc(C(=O)Nc2nnnn2C)c(Cl)c1CS(C)(=O)=O` [Example 1-289], 90.
`CCCn1nnnc1NC(=O)c1ccc(C(F)(F)F)c(CSC)c1Cl` [Example 3-296]: the “herbicidal action PHBPU” value is given as 90.
The same measure, in the same setting: for `CCCn1nnnc1NC(=O)c1ccc(C(F)F)c(CSC)c1Cl` [Example 3-320] the value was 90.
As to `CCCn1nnnc1NC(=O)c1ccc(C(F)(F)F)c(CS(=O)(=O)CC)c1Br` [Example 3-385], the “herbicidal action PHBPU” value stood at 90.

The assay is the same for the next values; noted with them: post-emergence, dosage 80 g/ha.
In the case of `Cn1nnnc1NC(=O)c1ccc(C(F)(F)F)c(C[S+](C)[O-])c1Br` (stereo not drawn) [Example 1-381], the “herbicidal action PHBPU” value worked out at 100%.
In the case of `C=CCSCc1c(C(F)(F)F)ccc(C(=O)Nc2nnnn2C)c1Cl` [Example 1-308], the “herbicidal action PHBPU” value is on record as 100%.
For the molecule `CCSCc1c(C(F)(F)F)ccc(C(=O)Nc2nnnn2CC)c1Br` [Example 2-383], the “herbicidal action PHBPU” value was 90%.
Same read-out and setting: for `CCCn1nnnc1NC(=O)c1ccc(C(F)(F)F)c(C[S+](C)[O-])c1Br` (stereo not drawn) [Example 3-381] the value was 100%.

In another assay the test system is Matricaria inodora. Put plainly: Pre-emergence herbicidal action, MATIN. The format is in vivo. Particulars: dosage 320 g/ha, scored visually after 3 weeks vs untreated controls (100% = plants have died). The gist of the method: as §1
With `CCCn1nnnc1NC(=O)c1ccc(C(F)F)c(C[S+]([O-])CC)c1Cl` (stereo not drawn) [Example 3-324], the “herbicidal activity MATIN” value is 100%.
`CCCn1nnnc1NC(=O)c1ccc(C(F)(F)F)c(CSCC)c1Cl` [Example 3-299]: the “herbicidal activity MATIN” value came to 100%.
With `Cn1nnnc1NC(=O)c1ccc(C(F)(F)F)c(C[S+](C)[O-])c1Br` (stereo not drawn) [Example 1-381], the “herbicidal activity MATIN” value turned out to be 100%.
With `Cc1ccc(C(=O)Nc2nnnn2C)c(Cl)c1CS(C)(=O)=O` [Example 1-289], the “herbicidal activity MATIN” value turned out to be 100%.
Turning to `C=CCSCc1c(C(F)(F)F)ccc(C(=O)Nc2nnnn2C)c1Cl` [Example 1-308], the “herbicidal activity MATIN” value amounted to 100%.
Consider `CCSCc1c(C(F)(F)F)ccc(C(=O)Nc2nnnn2CC)c1Br` [Example 2-383], for which the “herbicidal activity MATIN” value is 100%.
Take `CCCn1nnnc1NC(=O)c1ccc(C(F)(F)F)c(CSC)c1Cl` [Example 3-296]: the “herbicidal activity MATIN” value was 100%.
Still for that read-out and setting: as for `CCCn1nnnc1NC(=O)c1ccc(C(F)(F)F)c(C[S+](C)[O-])c1Br` (stereo not drawn) [Example 3-381], the figure is 100%; as for `CCCn1nnnc1NC(=O)c1ccc(C(F)F)c(CSC)c1Cl` [Example 3-320], 100%.
Turning to `CCCn1nnnc1NC(=O)c1ccc(C(F)(F)F)c(CS(=O)(=O)CC)c1Br` [Example 3-385], the “herbicidal activity MATIN” value turned out to be 100%.
